Results as given in ChEMBL document CHEMBL4364276, “Discovery of 4-phenyl-2H-benzo[b][1,4]oxazin-3(4H)-one derivatives as potent and orally active PI3K/mTOR dual inhibitors” (Eur J Med Chem, 2019).

How the values were obtained:
[1] = target: cAMP-dependent protein kinase catalytic subunit alpha (Homo sapiens) (UniProt P17612); assay: Inhibition of human PKA at 100 nM using LCGRTGRRNSI as substrate by [gamma-33P]-ATP assay
[2] = target: Inhibitor of nuclear factor kappa-B kinase subunit beta (Homo sapiens) (UniProt O14920); assay: Inhibition of human IKKbeta at 100 nM using KKKKERLLDDRHDSGLDSMKDEE as substrate by [gamma-33P]-ATP assay
Chain of Inhibitor of nuclear factor kappa-B kinase subunit beta (Homo sapiens) (O14920 whole entry): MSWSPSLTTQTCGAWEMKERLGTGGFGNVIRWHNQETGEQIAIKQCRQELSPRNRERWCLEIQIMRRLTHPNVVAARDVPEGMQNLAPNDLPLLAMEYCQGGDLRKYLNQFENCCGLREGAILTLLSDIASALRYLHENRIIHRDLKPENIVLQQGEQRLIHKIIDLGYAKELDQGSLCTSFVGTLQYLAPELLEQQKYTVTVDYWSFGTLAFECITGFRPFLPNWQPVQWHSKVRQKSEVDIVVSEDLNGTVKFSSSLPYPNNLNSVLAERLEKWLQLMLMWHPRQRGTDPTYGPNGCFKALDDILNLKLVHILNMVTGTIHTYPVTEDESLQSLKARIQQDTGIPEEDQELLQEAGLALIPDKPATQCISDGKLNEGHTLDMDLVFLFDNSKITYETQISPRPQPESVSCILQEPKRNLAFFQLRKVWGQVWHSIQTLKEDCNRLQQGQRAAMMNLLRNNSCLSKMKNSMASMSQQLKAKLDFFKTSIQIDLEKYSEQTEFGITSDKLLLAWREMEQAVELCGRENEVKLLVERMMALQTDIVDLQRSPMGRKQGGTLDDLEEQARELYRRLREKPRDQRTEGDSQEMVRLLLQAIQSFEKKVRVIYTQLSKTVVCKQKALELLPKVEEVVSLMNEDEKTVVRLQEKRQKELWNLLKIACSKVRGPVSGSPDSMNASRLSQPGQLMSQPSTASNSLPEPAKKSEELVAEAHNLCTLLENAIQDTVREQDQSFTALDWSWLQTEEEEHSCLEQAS

A549 [3] = assay: Antitumor activity against human A549 cells xenografted in BALB/c nude mouse assessed as tumor growth inhibition at 40 mg/kg, ig administered for 30 days measured every 3 days during compound dosing relative to control; type: functional; conditions: A549, po, read-out: TGI
[4] = target: Receptor-interacting serine/threonine-protein kinase 4 (Homo sapiens) (UniProt P57078); assay: Inhibition of human RIPK4 at 100 nM using histone H2A as substrate by [gamma-33P]-ATP assay
[5] = target: Serine/threonine-protein kinase mTOR (Homo sapiens, UniProt P42345); assay: Inhibition of human mTOR at 100 nM using 4EBP1 as substrate by [gamma-33P]-ATP assay
A-375 = assay: Antiproliferative activity against human A375 cells assessed as reduction in cell viability incubated for 72 hrs by MTT assay; type: functional, cell-based; conditions: A-375, 72 h
[6] = target: CDK2/Cyclin O (Homo sapiens) (UniProt P24941+P22674); assay: Inhibition of human CDK2/cyclin-O at 100 nM using histone H1 as substrate by [gamma-33P]-ATP assay; type: protein-complex assay
[7] = target: Protein kinase C beta type (Homo sapiens) (UniProt P05771); assay: Inhibition of human PKCb1 at 100 nM using Histone H1 as substrate by [gamma-33P]-ATP assay
[8] = target: Casein kinase II subunit alpha' (Homo sapiens) (UniProt P19784); assay: Inhibition of human CK2A2 at 100 nM using RRRDDDSDDD as substrate by [gamma-33P]-ATP assay
[9] = target: Serine/threonine-protein kinase PLK2 (Homo sapiens) (UniProt Q9NYY3); assay: Inhibition of human PLK2 at 100 nM using casein as substrate by [gamma-33P]-ATP assay
[10] = target: STE20-like serine/threonine-protein kinase (Homo sapiens) (UniProt Q9H2G2); assay: Inhibition of human SLK at 100 nM using Histone H3 as substrate by [gamma-33P]-ATP assay
Chain of STE20-like serine/threonine-protein kinase (Homo sapiens) (Q9H2G2 whole entry, looked up): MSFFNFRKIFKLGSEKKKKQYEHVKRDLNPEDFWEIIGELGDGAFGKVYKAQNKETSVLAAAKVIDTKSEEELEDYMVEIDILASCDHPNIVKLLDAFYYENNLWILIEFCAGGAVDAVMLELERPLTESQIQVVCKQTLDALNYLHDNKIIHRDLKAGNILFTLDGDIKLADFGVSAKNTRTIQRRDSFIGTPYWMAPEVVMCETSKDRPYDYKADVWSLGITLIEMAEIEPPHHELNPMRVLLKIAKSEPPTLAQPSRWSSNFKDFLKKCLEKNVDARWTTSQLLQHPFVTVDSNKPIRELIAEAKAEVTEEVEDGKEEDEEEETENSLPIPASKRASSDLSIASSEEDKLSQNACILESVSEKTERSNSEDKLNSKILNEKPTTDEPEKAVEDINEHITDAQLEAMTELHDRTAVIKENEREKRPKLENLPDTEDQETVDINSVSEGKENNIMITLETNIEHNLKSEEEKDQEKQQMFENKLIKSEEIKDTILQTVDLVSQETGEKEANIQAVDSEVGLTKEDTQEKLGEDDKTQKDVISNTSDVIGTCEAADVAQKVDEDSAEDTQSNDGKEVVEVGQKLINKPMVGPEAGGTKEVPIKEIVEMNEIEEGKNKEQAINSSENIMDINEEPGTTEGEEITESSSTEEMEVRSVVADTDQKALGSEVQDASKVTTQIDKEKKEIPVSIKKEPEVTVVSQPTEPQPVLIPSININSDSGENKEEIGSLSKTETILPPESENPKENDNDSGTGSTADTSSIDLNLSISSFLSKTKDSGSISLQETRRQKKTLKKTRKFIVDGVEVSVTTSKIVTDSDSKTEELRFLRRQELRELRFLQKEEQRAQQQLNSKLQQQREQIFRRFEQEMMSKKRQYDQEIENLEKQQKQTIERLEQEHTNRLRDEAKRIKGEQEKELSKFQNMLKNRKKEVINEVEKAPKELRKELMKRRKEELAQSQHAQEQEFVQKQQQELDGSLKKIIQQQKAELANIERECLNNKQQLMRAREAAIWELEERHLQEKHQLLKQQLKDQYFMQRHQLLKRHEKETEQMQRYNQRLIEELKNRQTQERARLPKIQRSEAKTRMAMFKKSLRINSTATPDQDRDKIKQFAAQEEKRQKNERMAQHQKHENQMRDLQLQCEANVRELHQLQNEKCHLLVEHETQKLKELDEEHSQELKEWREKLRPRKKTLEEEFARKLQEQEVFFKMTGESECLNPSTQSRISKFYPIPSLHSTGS

[11] = target: Lymphokine-activated killer T-cell-originated protein kinase (Homo sapiens) (UniProt Q96KB5); assay: Inhibition of human PBK at 100 nM using MBP as substrate by [gamma-33P]-ATP assay
Chain of Lymphokine-activated killer T-cell-originated protein kinase (Homo sapiens) (Q96KB5 whole entry): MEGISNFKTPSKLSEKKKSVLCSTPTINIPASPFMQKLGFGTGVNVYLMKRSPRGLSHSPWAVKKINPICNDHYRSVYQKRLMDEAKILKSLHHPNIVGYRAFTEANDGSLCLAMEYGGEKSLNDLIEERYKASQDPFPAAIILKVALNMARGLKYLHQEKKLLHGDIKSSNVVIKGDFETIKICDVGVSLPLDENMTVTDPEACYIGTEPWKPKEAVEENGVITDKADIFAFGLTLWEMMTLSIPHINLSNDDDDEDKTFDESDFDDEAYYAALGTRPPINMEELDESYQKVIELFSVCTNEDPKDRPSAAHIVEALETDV

[12] = target: Tyrosine-protein kinase Fyn (Homo sapiens) (UniProt P06241); assay: Inhibition of human FYN at 100 nM using poly[Glu:Tyr] (4:1) as substrate by [gamma-33P]-ATP assay
Chain of Tyrosine-protein kinase Fyn (Homo sapiens) (P06241 2-537 limits assumed): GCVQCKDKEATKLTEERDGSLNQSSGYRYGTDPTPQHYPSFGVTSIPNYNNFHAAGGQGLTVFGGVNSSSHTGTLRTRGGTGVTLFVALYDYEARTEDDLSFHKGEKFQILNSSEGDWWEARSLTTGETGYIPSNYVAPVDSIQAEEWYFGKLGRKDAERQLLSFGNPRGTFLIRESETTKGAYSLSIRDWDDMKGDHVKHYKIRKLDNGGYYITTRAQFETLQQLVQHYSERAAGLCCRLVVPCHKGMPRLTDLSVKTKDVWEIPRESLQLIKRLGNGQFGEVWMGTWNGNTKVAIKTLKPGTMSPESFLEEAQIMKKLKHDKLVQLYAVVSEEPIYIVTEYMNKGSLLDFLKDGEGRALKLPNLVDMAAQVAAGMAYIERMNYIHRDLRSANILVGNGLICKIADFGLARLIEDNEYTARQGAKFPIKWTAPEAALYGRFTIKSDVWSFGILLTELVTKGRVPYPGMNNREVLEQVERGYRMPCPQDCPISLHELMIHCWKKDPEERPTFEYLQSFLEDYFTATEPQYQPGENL

[13] = target: Serine/threonine-protein kinase N2 (Homo sapiens) (UniProt Q16513); assay: Inhibition of human PKN2 at 100 nM using KKLNRTLSVA as substrate by [gamma-33P]-ATP assay
[14] = target: Tyrosine-protein kinase Tec (Homo sapiens) (UniProt P42680); assay: Inhibition of human TEC at 100 nM using poly[Glu:Tyr] (4:1) as substrate by [gamma-33P]-ATP assay
[15] = target: LIM domain kinase 2 (Homo sapiens) (UniProt P53671); assay: Inhibition of human LIMK2 at 100 nM using cofilin as substrate by [gamma-33P]-ATP assay
Chain of LIM domain kinase 2 (Homo sapiens) (P53671 whole entry, looked up, the tested form may be a part): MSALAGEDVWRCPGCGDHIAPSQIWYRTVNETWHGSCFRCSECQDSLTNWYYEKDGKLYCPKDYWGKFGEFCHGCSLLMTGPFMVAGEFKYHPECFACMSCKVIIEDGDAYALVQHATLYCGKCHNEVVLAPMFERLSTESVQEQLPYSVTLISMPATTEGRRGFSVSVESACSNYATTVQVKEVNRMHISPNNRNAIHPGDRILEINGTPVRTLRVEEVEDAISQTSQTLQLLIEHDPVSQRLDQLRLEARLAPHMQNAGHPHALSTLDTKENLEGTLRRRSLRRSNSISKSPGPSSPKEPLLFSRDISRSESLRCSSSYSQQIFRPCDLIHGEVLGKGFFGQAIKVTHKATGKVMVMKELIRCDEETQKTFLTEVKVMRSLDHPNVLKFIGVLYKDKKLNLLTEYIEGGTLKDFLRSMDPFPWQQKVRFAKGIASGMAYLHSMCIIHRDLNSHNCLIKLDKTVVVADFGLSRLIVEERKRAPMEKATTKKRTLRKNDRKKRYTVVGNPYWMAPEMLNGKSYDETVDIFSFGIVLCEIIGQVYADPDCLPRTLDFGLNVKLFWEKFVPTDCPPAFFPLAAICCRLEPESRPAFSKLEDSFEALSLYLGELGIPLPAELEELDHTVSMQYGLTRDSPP

[16] = target: Kinase suppressor of Ras 2 (Homo sapiens) (UniProt Q6VAB6); assay: Inhibition of human KSR2 at 100 nM using KRREILSRRPSYR as substrate by [gamma-33P]-ATP assay
Chain of Kinase suppressor of Ras 2 (Homo sapiens) (Q6VAB6 whole entry): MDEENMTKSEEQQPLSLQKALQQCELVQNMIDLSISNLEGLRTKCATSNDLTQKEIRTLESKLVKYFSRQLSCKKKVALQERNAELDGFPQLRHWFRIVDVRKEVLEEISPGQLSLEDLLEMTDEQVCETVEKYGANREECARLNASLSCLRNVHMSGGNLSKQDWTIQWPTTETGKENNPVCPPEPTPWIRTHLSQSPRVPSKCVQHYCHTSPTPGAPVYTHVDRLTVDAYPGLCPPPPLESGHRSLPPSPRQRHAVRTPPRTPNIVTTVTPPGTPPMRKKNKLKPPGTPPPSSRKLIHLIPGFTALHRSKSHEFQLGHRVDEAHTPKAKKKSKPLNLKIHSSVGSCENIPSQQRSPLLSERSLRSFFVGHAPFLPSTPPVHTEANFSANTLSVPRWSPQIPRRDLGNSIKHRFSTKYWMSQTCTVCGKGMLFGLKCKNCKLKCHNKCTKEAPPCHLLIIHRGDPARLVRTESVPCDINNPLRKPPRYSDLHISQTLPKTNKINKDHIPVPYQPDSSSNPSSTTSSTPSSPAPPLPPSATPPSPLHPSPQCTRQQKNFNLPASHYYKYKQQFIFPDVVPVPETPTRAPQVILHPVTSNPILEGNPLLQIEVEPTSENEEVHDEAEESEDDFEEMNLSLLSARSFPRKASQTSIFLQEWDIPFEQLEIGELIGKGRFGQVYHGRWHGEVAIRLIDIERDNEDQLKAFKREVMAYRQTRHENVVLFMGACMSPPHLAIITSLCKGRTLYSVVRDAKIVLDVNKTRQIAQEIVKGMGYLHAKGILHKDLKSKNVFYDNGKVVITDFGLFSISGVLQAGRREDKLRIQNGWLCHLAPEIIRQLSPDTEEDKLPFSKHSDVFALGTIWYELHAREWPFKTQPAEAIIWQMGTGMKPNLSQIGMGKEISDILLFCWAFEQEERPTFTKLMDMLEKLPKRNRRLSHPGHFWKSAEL

[17] = target: Receptor-interacting serine/threonine-protein kinase 3 (Homo sapiens) (UniProt Q9Y572); assay: Inhibition of human RIPK3 at 100 nM using MBP as substrate by [gamma-33P]-ATP assay
[18] = target: TRAF2 and NCK-interacting protein kinase (Homo sapiens) (UniProt Q9UKE5); assay: Inhibition of human TNIK at 100 nM using RLGRDKYKTLRQIRQ as substrate by [gamma-33P]-ATP assay
PC-12 = assay: Cytotoxicity against rat PC12 cells assessed as reduction in cell viability at 0.625 to 20 uM incubated for 72 hrs by MTT assay; type: cell-based; conditions: pc-12, 72 h
[19] = target: Casein kinase I isoform epsilon (Homo sapiens) (UniProt P49674); assay: Inhibition of human CK1E at 100 nM using KRRRAL[pS]VASLPGL as substrate by [gamma-33P]-ATP assay
[20] = target: Casein kinase I isoform gamma-2 (Homo sapiens) (UniProt P78368); assay: Inhibition of human CK1gamma2 at 100 nM using KRRRAL[pS]VASLPGL as substrate by [gamma-33P]-ATP assay
[21] = target: Membrane-associated tyrosine- and threonine-specific cdc2-inhibitory kinase (Homo sapiens) (UniProt Q99640); assay: Inhibition of human PKMYT1 at 100 nM using MBP as substrate by [gamma-33P]-ATP assay
[22] = target: Proto-oncogene tyrosine-protein kinase ROS (Homo sapiens) (UniProt P08922); assay: Inhibition of human ROS at 100 nM using KKKSPGEYVNIEFG as substrate by [gamma-33P]-ATP assay
[23] = Inhibition of PI3K/Akt/mTOR signaling in human HeLa cells assessed as reduction in AKT 473 phosphorylation incubated for 24 hrs by Western blot analysis; type: cell-based
A549 [24] = assay: cells; conditions: Homo sapiens, A549, 72 h
[25] = target: Mitogen-activated protein kinase 8 (Homo sapiens) (UniProt P45983); assay: Inhibition of human JNK1 at 100 nM using ATF2 as substrate by [gamma-33P]-ATP assay
[26] = target: Receptor tyrosine-protein kinase erbB-4 (Homo sapiens) (UniProt Q15303); assay: Inhibition of human ERBB4 at 100 nM using poly[Glu:Tyr] (4:1) as substrate by [gamma-33P]-ATP assay
[27] = target: Serine/threonine-protein kinase B-raf (Homo sapiens) (UniProt P15056); assay: Inhibition of human BRAF at 100 nM using MEK1 (K97R) as substrate by [gamma-33P]-ATP assay
[28] = target: Death-associated protein kinase 3 (Homo sapiens) (UniProt O43293); assay: Inhibition of human ZIPK at 100 nM using KKLNRTLSFAEPG as substrate by [gamma-33P]-ATP assay
[29] = target: Testis-specific serine/threonine-protein kinase 6 (Homo sapiens) (UniProt Q9BXA6); assay: Inhibition of human SSTK at 100 nM using MBP as substrate by [gamma-33P]-ATP assay
Chain of Testis-specific serine/threonine-protein kinase 6 (Homo sapiens) (Q9BXA6 whole entry, the tested form may be a part): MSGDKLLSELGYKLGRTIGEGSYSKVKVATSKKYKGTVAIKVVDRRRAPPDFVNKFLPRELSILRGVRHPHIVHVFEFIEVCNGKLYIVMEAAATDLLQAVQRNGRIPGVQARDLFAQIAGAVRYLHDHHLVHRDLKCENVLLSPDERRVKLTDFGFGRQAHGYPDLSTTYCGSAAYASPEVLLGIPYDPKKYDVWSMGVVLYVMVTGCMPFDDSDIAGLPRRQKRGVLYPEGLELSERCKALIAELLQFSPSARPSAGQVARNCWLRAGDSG

[30] = target: Epithelial discoidin domain-containing receptor 1 (Homo sapiens) (UniProt Q08345); assay: Inhibition of human DDR1 at 100 nM using KKSRGDYMTMQIG as substrate by [gamma-33P]-ATP assay

COc1ccc(N2C(=O)COc3ccc(-c4cnc(OC)c(NS(=O)(=O)c5ccc(F)cc5)c4)cc32)cc1
inhibition [1]: 15.1% | inhibition [2]: 14.5% | inhibition in vivo at 40 mg/kg (A549 [3]): 70.2% | inhibition [4]: 1.41% | inhibition [5]: 67.5% | IC50 (A-375): 18.4 µM | inhibition [6]: 0.23% | inhibition [7]: 7.83% | inhibition [8]: 19.8% | inhibition [9]: 4.64% | inhibition [10]: -0.32% | inhibition [11]: 0.99% | inhibition [12]: -0.86% | inhibition [13]: 6.6% | inhibition [14]: -4.06% | inhibition [15]: 2.98% | inhibition [16]: 20.8% | inhibition [17]: -2.23% | inhibition [18]: 15.6% | Activity (PC-12): Non-Toxic | inhibition [19]: 3.34% | inhibition [20]: 1.74% | inhibition [21]: 14% | inhibition [22]: 15.3% | inhibition [23]: Dose-dependent effect | IC50 (A549 [24]): 1.35 µM | inhibition [25]: -0.95% | inhibition [26]: -0.06% | inhibition [27]: 5.74% | inhibition [28]: 0.68% | inhibition [29]: 2.2% | inhibition [30]: 2.59%
